Source: patent publication US9260429B2, “Pyrido[3,4-B]indoles and methods of use” (Medivation Technologies, Inc., priority 2008, dated 2016)
Like-named read-outs stand apart in the source and are kept apart here.

Experiments:
[1] = system: rat central imidazoline I2 receptor; test: Central imidazoline I2 radioligand binding ([3H]Idazoxan); conditions: inhibition of specific [3H]Idazoxan binding
Description: To evaluate in radioligand binding assays the activity of compounds of the invention, rat central imidazoline I2 receptor obtained from Wistar Rat cerebral cortex (Brown, C. M. et al., Br. J. Pharmacol. 99:803, 1990) in a modified Tris-HCl buffer (50 mM Tris-HCl buffer, pH 7.4, 0.5 mM EDTA) was used. Compounds of the invention were incubated with 2 nM [^3H]Idazoxan for 30 minutes at 25° C. Non-specific binding was estimated in the presence of 1 μM Idazoxan. Receptor proteins were filtered and washed, the filters were then counted to determine [^3H]Idazoxan specifically bound. Compounds were screened at 1 μM or lower, using 1% DMSO as vehicle. Compounds of the invention were tested in this biochemical assay and percent inhibition of specific binding was determined.

[2] = biological target: T1, human recombinant adrenergic α1D receptor (Homo sapiens, UniProt P25100); test: Adrenergic α1D radioligand binding ([3H]Prozosin)
T1 construct: expressed in transfected cells; host or cells: HEK-293 cells
T1 sequence (P25100 1-572): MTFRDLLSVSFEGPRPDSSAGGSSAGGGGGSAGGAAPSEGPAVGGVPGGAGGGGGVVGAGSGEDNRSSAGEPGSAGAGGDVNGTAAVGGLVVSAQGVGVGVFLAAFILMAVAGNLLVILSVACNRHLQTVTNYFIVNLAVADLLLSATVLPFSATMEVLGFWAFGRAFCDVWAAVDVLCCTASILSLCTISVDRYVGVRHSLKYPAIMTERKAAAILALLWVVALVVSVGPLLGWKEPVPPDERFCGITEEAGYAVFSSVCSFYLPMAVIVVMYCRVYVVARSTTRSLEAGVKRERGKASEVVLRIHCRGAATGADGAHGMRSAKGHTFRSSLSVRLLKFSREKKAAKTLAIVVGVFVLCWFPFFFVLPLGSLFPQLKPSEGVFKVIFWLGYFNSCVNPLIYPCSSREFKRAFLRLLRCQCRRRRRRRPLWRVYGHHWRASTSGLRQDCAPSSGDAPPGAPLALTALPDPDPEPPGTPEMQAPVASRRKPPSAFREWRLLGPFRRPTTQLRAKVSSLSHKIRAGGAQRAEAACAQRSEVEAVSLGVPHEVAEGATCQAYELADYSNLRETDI
Description: To evaluate in radioligand binding assays the activity of compounds of the invention, human recombinant adrenergic a1D receptor expressed in human embryonic kidney (HEK-293) cells (Kenny, B. A. et al. Br. J. Pharmacol. 115(6):981, 1995) in a 50 mM Tris-HCl buffer, pH 7.4, was used. Compounds of invention were incubated with 0.6 nM [^3H]Prozosin for 60 minutes at 25° C. Non-specific binding was estimated in the presence of 10 μM phentolamine. Receptor proteins were filtered and washed, the filters were then counted to determine [^3H]Prozosin specifically bound. Compounds were screened at 1 μM or lower, using 1% DMSO as vehicle. Biochemical assay results are presented as the percent inhibition of specific binding in Table 4. Adrenergic a2A

[3] = biological target: T2, human recombinant serotonin (5-Hydroxytryptamine) 5-HT7 receptor (Homo sapiens, UniProt P34969); test: Serotonin 5-HT7 radioligand binding ([3H]LSD); conditions: for inhibition at 0.003 µM: compound concentration 3 nM; for inhibition at 0.01 µM: compound concentration 10 nM; for inhibition at 0.03 µM: compound concentration 0.03 μM; for inhibition at 0.1 µM: compound concentration 0.1 μM; for inhibition at 0.3 µM: compound concentration 0.3 μM
T2 construct: expressed in transfected cells; host or cells: CHO cells
T2 sequence (P34969 whole entry): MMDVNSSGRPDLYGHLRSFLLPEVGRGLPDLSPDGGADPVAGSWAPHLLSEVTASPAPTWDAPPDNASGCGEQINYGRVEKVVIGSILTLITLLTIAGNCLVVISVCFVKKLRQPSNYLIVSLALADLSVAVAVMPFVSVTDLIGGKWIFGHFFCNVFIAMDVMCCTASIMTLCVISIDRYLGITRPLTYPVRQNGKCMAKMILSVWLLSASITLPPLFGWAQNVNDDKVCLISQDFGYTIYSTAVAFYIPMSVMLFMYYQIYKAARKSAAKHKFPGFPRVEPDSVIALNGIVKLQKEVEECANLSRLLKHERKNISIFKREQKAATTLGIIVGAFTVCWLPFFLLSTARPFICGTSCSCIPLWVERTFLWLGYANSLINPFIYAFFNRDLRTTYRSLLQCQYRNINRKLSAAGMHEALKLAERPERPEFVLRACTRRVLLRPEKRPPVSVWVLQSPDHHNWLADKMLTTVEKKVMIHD
In short: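 CHO-expressed human 5-HT7 receptor with 5.5 nM [3H]LSD in 50 mM Tris-HCl pH 7.4, 10 mM MgCl2, 0.5 mM EDTA, 2 h at 25 °C; nonspecific binding defined with serotonin. Filtration and counting. Compounds at ≤1 μM, 1% DMSO; % inhibition of specific binding.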

[4] = 1 h, read-out: Percent Inhibition of ligand binding Adrenergic (1 μM ligand conc.) α1D
[5] = read-out: Percentage inhibition of ligand binding to 5-HT7 receptor
[6] = compound concentration 1 μM, read-out: Percentage inhibition of ligand binding to Adrenergic α1D receptor
[7] = 2 h, read-out: Percent Inhibition of ligand binding Serotonin (1 μM ligand concentration) 5-HT7

| Structure (SMILES) | inhibition at 1 µM [2, 4] | inhibition at 1 µM [3, 7] | also measured |
| --- | --- | --- | --- |
| Cc1ccc2c(c1)c1c(n2CCc2ccc(C)nc2)CN(C)CC1 [Compound 1, 2,3,4,9-tetrahydro-2,6-dimethyl-9-(2-(6-methylpyridin-3-yl)ethyl)-1H-pyrido[3,4-b]indole] | 65% | – | Binding data (Percentage Inhibition) Imidazoline I2 Central (1 μM) [1]: 40% |
| Cc1ccc2c(c1)c1c(n2CCC2CCCCC2)CN(C)CC1 [Compound 2, 9-(2-cyclohexylethyl)-2,3,4,9-tetrahydro-2,6-dimethyl-1H-pyrido[3,4-b]indole] | 42% | – | Binding data (Percentage Inhibition) Imidazoline I2 Central (1 μM) [1]: 18% |
| CN1CCc2c(n(CCc3ccc(F)cc3)c3ccc(Cl)cc23)C1 [Compound 3, 9-(4-fluorophenethyl)-6-chloro-2,3,4,9-tetrahydro-2-methyl-1H-pyrido[3,4-b]indole] | 77% | – | Binding data (Percentage Inhibition) Imidazoline I2 Central (1 μM) [1]: 20% |
| CC1CCN(C(=O)Cn2c3c(c4cc(Cl)ccc42)CCN(C)C3)CC1 [Compound 38, 2-(6-chloro-1,2,3,4-tetrahydro-2-methylpyrido[3,4-b]indol-9-yl)-1-(4-methylpiperidin-1-vyl)ethanone] | 25% | – | Binding data (Percentage Inhibition) Imidazoline I2 Central (1 μM) [1]: 33% |
| C/C(=C\n1c2c(c3cc(Cl)ccc31)CCN(C)C2)c1ccc(F)cc1 [Compound 90, (E)-6-chloro-9-(2-(4-fluorophenyl)prop-1-enyl)-2-methyl-2,3,4,9-tetrahydro-1H-pyrido[3,4-b]indole] | 62% | – | inhibition at 0.003 µM [3, 5]: -2%; inhibition at 0.01 µM [3, 5]: 15%; inhibition at 0.03 µM [3, 5]: 29%; inhibition at 0.1 µM [3, 5]: 63%; inhibition at 0.3 µM [3, 5]: 86%; inhibition at 1 µM [2, 6]: 62% |
| C/C(=C\n1c2c(c3cc(C)ccc31)CCN(C)C2)c1ccc(F)cc1 [Compound 91, (E)-9-(2-(4-fluorophenyl)prop-1-enyl)-2,6-dimethyl-2,3,4,9-tetrahydro-1H-pyrido[3,4-b]indole] | 73% | – | inhibition at 0.003 µM [3, 5]: 19%; inhibition at 0.01 µM [3, 5]: 36%; inhibition at 0.03 µM [3, 5]: 53%; inhibition at 0.1 µM [3, 5]: 83%; inhibition at 0.3 µM [3, 5]: 87%; inhibition at 1 µM [2, 6]: 73% |
| C/C(=C\n1c2c(c3cc(C)ccc31)CCN(C)C2)c1ccc(Cl)cc1 [Compound 97, 9-(2-(4-chlorophenyl)prop-1-enyl)-2,6-dimethyl-2,3,4,9-tetrahydro-1H-pyrido[3,4-b]indole] | 66% | 98% | – |
| C/C(=C\n1c2c(c3cc(Cl)ccc31)CCN(C)C2)c1ccc(Cl)cc1 [Compound 98, 6-chloro-9-(2-(4-chlorophenyl)prop-1-enyl)-2-methyl-2,3,4,9-tetrahydro-1H-pyrido[3,4-b]indole] | 57% | 94% | – |
| C/C(=C\n1c2c(c3cc(Cl)ccc31)CCN(C)C2C)c1ccc(Cl)cc1 (stereo not drawn) [Compound 99, 6-chloro-9-(2-(4-chlorophenyl)prop-1-enyl)-1,2-dimethyl-2,3,4,9-tetrahydro-1H-pyrido[3,4-b]indole] | 20% | 68% | – |
| CCC1c2c(c3cc(Cl)ccc3n2/C=C(\C)c2ccc(Cl)cc2)CCN1C (stereo not drawn) [Compound 100, 6-chloro-9-(2-(4-chlorophenyl)prop-1-enyl)-1-ethyl-2-methyl-2,3,4,9-tetrahydro-1H-pyrido[3,4-b]indole] | 8% | 42% | – |
| C#CCn1c2c(c3cc(Cl)ccc31)CCN(C)C2 [Compound 125, 6-chloro-2,3,4,9-tetrahydro-2-methyl-9-(prop-2-yn1)-1H-pyrido[3,4-b]indole] | 93% | – | Binding data (Percentage Inhibition) Imidazoline I2 Central (1 μM) [1]: 60% |
| CC1c2c(c3cc(Cl)ccc3n2C#Cc2ccc(F)cc2)CCN1C (stereo not drawn) [Compound 128] | 25% | 24% | – |
| CCC1c2c(c3cc(Cl)ccc3n2C#Cc2ccc(F)cc2)CCN1C (stereo not drawn) [Compound 129] | 10% | 15% | – |
| CC1c2c(c3cc(Cl)ccc3n2C#Cc2ccc(Cl)cc2)CCN1C (stereo not drawn) [Compound 132, 6-chloro-9-((4-chlorophenyl)ethynyl)-1,2-dimethyl-2,3,4,9-tetrahydro-1H-pyrido[3,4-b]indole] | -8% | 35% | – |
| CCC1c2c(c3cc(C)ccc3n2C(=O)Cc2ccc(F)cc2)CCN1C (stereo not drawn) [Compound 159] | 25% | 49% | – |
| CCC1c2c(c3cc(C)ccc3n2/C=C(\C)c2ccc(Cl)cc2)CCN1C (stereo not drawn) [Compound 160, 9-(2-(4-chlorophenyl)prop-1-enyl)-1-ethyl-2,6-dimethyl-2,3,4,9-tetrahydro-1H-pyrido[3,4-b]indole] | 25% | 84% | – |
| C/C(=C\n1c2c(c3cc(C)ccc31)CCN(C)C2C)c1ccc(Cl)cc1 (stereo not drawn) [Compound 161, 9-(2-(4-chlorophenyl)prop-1-enyl)-1,2,6-trimethyl-2,3,4,9-tetrahydro-1H-pyrido[3,4-b]indole] | 32% | 93% | – |
| CCC1c2c(c3cc(C)ccc3n2C#Cc2ccc(Cl)cc2)CCN1C (stereo not drawn) [Compound 162, 9-((4-chlorophenyl)ethynyl)-1-ethyl-2,6-dimethyl-2,3,4,9-tetrahydro-1H-pyrido[3,4-b]indole] | 19% | 27% | – |
| Cc1ccc2c(c1)c1c(n2C(=O)Cc2ccc(Cl)cc2)C(c2ccccc2)N(C)CC1 (stereo not drawn) [Compound 163] | 78% | 29% | – |
| C/C(=C\n1c2c(c3cc(C)ccc31)CCN(C)C2c1ccccc1)c1ccc(Cl)cc1 (stereo not drawn) [Compound 164, 9-(2-(4-chlorophenyl)prop-1-enyl)-2,6-dimethyl-1-phenyl-2,3,4,9-tetrahydro-1H-pyrido[3,4-b]indole] | 10% | 8% | – |
| C/C(=C/n1c2c(c3cc(C)ccc31)CCN(C)C2C)c1ccccc1F (stereo not drawn) [Compound 165] | 26% | 91% | – |
| C/C(=C\n1c2c(c3cc(C)ccc31)CCN(C)C2C)c1ccccc1F (stereo not drawn) [Compound 166] | 69% | 92% | inhibition at 1 µM ([3]; compound concentration 1 μM, read-out: Percentage inhibition of ligand binding to 5-HT7 receptor): 92%; inhibition at 1 µM [2, 6]: 69% |
| C/C(=C/n1c2c(c3cc(Cl)ccc31)CCN(C)C2C)c1ccccc1F (stereo not drawn) [Compound 167] | 36% | 97% | – |
| C/C(=C\n1c2c(c3cc(Cl)ccc31)CCN(C)C2C)c1ccccc1F (stereo not drawn) [Compound 168] | 38% | 84% | – |
